How the values were obtained:
Assay in all cases: Test C preemergence
Format in all cases: in vivo
[1] = tested on: large (Lg) crabgrass (Digitaria sanguinalis); settings: Digitaria sanguinalis, pre-emergence, 336 h, preemergence, scale 0 to 100, read-out: Plant response rating, Crabgrass, Large
How it was run: (§1)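 Greenhouse test; preemergence to seeds in loam/sand soil, or postemergence spray to 2-18 cm, 1- to 4-leaf plants in peat/vermiculite medium; compound in non-phytotoxic solvent plus surfactant. Visual rating vs controls at 13-15 d, 0 = no effect, 100 = complete control.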

[2] = tested on: yellow nutsedge (Cyperus esculentus); settings: Cyperus, pre-emergence, 336 h, preemergence, scale 0 to 100, read-out: Plant response rating, Nutsedge, Yellow
How it was run: as §1

[3] = tested on: winter wheat (Triticum aestivum); settings: Triticum aestivum, pre-emergence, 336 h, preemergence, scale 0 to 100, read-out: Plant response rating, Wheat
How it was run: as §1

[4] = tested on: johnsongrass (Sorghum halepense); settings: Sorghum halepense, pre-emergence, 336 h, preemergence, scale 0 to 100, read-out: Plant response rating, Johnsongrass
How it was run: as §1

[5] = tested on: velvetleaf (Abutilon theophrasti); settings: Abutilon theophrasti, pre-emergence, preemergence, scale 0 to 100, read-out: Plant response rating, Velvetleaf
How it was run: as §1

soybean (Glycine max) = settings: Glycine max, pre-emergence, preemergence, scale 0 to 100, read-out: Plant response rating, Soybean
How it was run: as §1

[6] = tested on: ragweed (common ragweed, Ambrosia elatior); settings: Ambrosia artemisiifolia, pre-emergence, 336 h, preemergence, scale 0 to 100, read-out: Plant response rating, Ragweed
How it was run: as §1

[7] = tested on: blackgrass (Alopecurus myosuroides); settings: Alopecurus myosuroides, pre-emergence, 336 h, preemergence, scale 0 to 100, read-out: Plant response rating, Blackgrass
How it was run: as §1

[8] = tested on: Italian ryegrass (Lolium multiflorum); settings: Lolium multiflorum, pre-emergence, 336 h, preemergence, scale 0 to 100, read-out: Plant response rating, Ryegrass, Italian
How it was run: as §1

[9] = tested on: pigweed (Amaranthus retroflexus); settings: Amaranthus retroflexus, pre-emergence, 336 h, preemergence, scale 0 to 100, read-out: Plant response rating, Pigweed
How it was run: as §1

[10] = tested on: giant foxtail (Setaria faberii); settings: Setaria faberi, pre-emergence, 336 h, preemergence, scale 0 to 100, read-out: Plant response rating, Foxtail, Giant
How it was run: as §1

corn (Zea mays) = settings: Zea mays, pre-emergence, 336 h, preemergence, scale 0 to 100
How it was run: as §1

[11] = tested on: lambsquarters (Chenopodium album); settings: Chenopodium album, pre-emergence, 336 h, preemergence, scale 0 to 100, read-out: Plant response rating, Lambsquarters
How it was run: as §1

[12] = tested on: barnyardgrass (Echinochloa crus-galli); settings: Echinochloa crus-galli, pre-emergence, preemergence, scale 0 to 100, read-out: Plant response rating, Barnyardgrass
How it was run: as §1

In the case of `Fc1cnc(Oc2c(Cl)cccc2Oc2ncc(Cl)cn2)nc1` [Compound 18, 5-chloro-2-[5-chloro-6-[(5-fluoro-2-pyrimidinyl)oxy]phenoxy]pyrimidine], the pest or weed control at 31 g/ha ([1]; 31 g ai/ha) is reported as 100%, the pest or weed control at 62 g/ha ([1]; 62 g ai/ha) is reported as 100% and the pest or weed control at 125 g/ha ([1]; 125 g ai/ha) is reported as 100%. It also gave a pest or weed control at 31 g/ha ([2]; 31 g ai/ha) of 0%, a pest or weed control at 62 g/ha ([2]; 62 g ai/ha) of 25% and a pest or weed control at 125 g/ha ([2]; 125 g ai/ha) of 25%. The plant injury at 31 g/ha ([3]; 31 g ai/ha) was 0%, the plant injury at 62 g/ha ([3]; 62 g ai/ha) was 15% and the plant injury at 125 g/ha ([3]; 125 g ai/ha) was 70%. It also gave a plant injury at 250 g/ha ([3]; 250 g ai/ha) of 85%, a pest or weed control at 31 g/ha ([4]; 31 g ai/ha) of 50% and a pest or weed control at 62 g/ha ([4]; 62 g ai/ha) of 70%. It also gave a pest or weed control at 125 g/ha ([4]; 125 g ai/ha) of 90%, a pest or weed control at 31 g/ha ([5]; 31 g ai/ha) of 85% and a pest or weed control at 62 g/ha ([5]; 62 g ai/ha) of 100%. It also gave a pest or weed control at 125 g/ha ([5]; 125 g ai/ha) of 100%, a pest or weed control at 250 g/ha ([5]; 250 g ai/ha) of 100% and a plant injury at 31 g/ha (soybean (Glycine max); 31 g ai/ha) of 60%. For the same molecule, the plant injury at 62 g/ha (soybean (Glycine max); 62 g ai/ha) was 80%, the plant injury at 125 g/ha (soybean (Glycine max); 125 g ai/ha) was 90% and the plant injury at 250 g/ha (soybean (Glycine max); 250 g ai/ha) was 90%. It also gave a pest or weed control at 31 g/ha ([6]; 31 g ai/ha) of 85%, a pest or weed control at 62 g/ha ([6]; 62 g ai/ha) of 100% and a pest or weed control at 125 g/ha ([6]; 125 g ai/ha) of 95%. For the same molecule, the pest or weed control at 250 g/ha ([6]; 250 g ai/ha) was 95%, the pest or weed control at 31 g/ha ([7]; 31 g ai/ha) was 15% and the pest or weed control at 62 g/ha ([7]; 62 g ai/ha) was 90%. For the same molecule, the pest or weed control at 125 g/ha ([7]; 125 g ai/ha) was 95%, the pest or weed control at 31 g/ha ([8]; 31 g ai/ha) was 30% and the pest or weed control at 62 g/ha ([8]; 62 g ai/ha) was 70%. For the same molecule, the pest or weed control at 125 g/ha ([8]; 125 g ai/ha) was 85%, the pest or weed control at 250 g/ha ([8]; 250 g ai/ha) was 95% and the pest or weed control at 31 g/ha ([9]; 31 g ai/ha) was 100%. It also gave a pest or weed control at 62 g/ha ([9]; 62 g ai/ha) of 100%, a pest or weed control at 125 g/ha ([9]; 125 g ai/ha) of 100% and a pest or weed control at 31 g/ha ([10]; 31 g ai/ha) of 98%. For the same molecule, the pest or weed control at 62 g/ha ([10]; 62 g ai/ha) was 100%, the pest or weed control at 125 g/ha ([10]; 125 g ai/ha) was 100% and the Corn plant response rating (crop injury, 0 = no effect, 100 = complete kill) at 31 g/ha (corn (Zea mays); 31 g ai/ha) was 10%. It also gave a Corn plant response rating (crop injury, 0 = no effect, 100 = complete kill) at 62 g/ha (corn (Zea mays); 62 g ai/ha) of 40%, a Corn plant response rating (crop injury, 0 = no effect, 100 = complete kill) at 125 g/ha (corn (Zea mays); 125 g ai/ha) of 60% and a pest or weed control at 31 g/ha ([11]; 31 g ai/ha) of 85%. For the same molecule, the pest or weed control at 62 g/ha ([11]; 62 g ai/ha) was 95%, the pest or weed control at 125 g/ha ([11]; 125 g ai/ha) was 95% and the pest or weed control at 31 g/ha ([12]; 31 g ai/ha) was 75%. It also gave a pest or weed control at 62 g/ha ([12]; 62 g ai/ha) of 100%, a pest or weed control at 125 g/ha ([12]; 125 g ai/ha) of 100% and a pest or weed control at 250 g/ha ([12]; 250 g ai/ha) of 100%.
